Test results published in PMC10065799, “High-throughput profiling of sequence recognition by tyrosine kinases and SH2 domains using bacterial peptide display” (eLife, 2023).
Values belong to the sequence of their own block, whether it stands above or below them.

What was measured:
Assay in all cases: pTyr-Var library bacterial peptide display kinase screen (enrichment scores)
c-Abl kinase domain = target: T1, c-Abl kinase domain (Mus musculus, UniProt P00520); format: biochemical;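 note: log2 fold change in enrichment of variant over reference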
T1 sequence (P00520 242-493 limits assumed): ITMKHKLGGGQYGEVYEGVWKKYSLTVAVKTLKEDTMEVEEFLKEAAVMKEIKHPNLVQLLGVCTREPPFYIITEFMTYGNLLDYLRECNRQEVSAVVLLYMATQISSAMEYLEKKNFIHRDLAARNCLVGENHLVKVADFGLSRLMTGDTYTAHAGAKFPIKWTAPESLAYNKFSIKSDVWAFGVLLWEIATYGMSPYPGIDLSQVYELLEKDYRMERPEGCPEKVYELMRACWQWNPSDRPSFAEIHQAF

c-Src kinase domain = c-Src kinase domain (Homo sapiens, UniProt P12931); format: biochemical; conditions: for Screen: sheet "Src";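 for screen: log2 fold change in enrichment of variant over reference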
EPHB1 kinase domain = format: biochemical, human; conditions: for Screen (variant relative to reference peptide, measured in the pTyr-Var library screen): sheet "EPHB1", variant seq vs reference seq, bacterial peptide display enrichment; for Screen: sheet EPHB1, effect of the variant peptide relative to its reference peptide in the pTyr-Var library screen (enrichment scores)
Fer kinase domain = format: biochemical, mouse; conditions: sheet "Fer"
[1] = fig5-data2, sheet "Abl", Screen for the variant/reference peptide pair, pTyr-Var library
[2] = sheet "Abl", effect of variant peptide relative to its reference peptide in pTyr-Var library screen (enrichment)
[3] = value of the variant peptide against its reference peptide in the pTyr-Var library screen with Fer
[4] = variant peptide versus its reference peptide in the pTyr-Var library screen
[5] = effect of the variant peptide relative to its reference peptide in the pTyr-Var library screen
[6] = variant peptide relative to its reference peptide, pTyr-Var library screen enrichment

Screen (c-Abl kinase domain; [1]): -1.016
Sequence: FFRNVYHLASV [RBL1_Y796_K794N_YF]

Screen (c-Abl kinase domain; [2]): 0.6095
Sequence: SVVVPYEPPEL [TP53_Y220_V225L]

Sequence: YDDGKYVYVVT
Enrichment score (mean) (c-Src kinase domain; pTyr-Var library screen with c-Src, sheet "Src substrates": annotated Src substrate sites, 11-residue peptide SITE_+/-5_AA, mean): 1.305

Screen (variant relative to reference peptide, measured in the pTyr-Var library screen) (EPHB1 kinase domain): 1.182
Sequence: LANNEYFFQVC [TTN_Y18997_R19000Q_YF]

Screen (Fer kinase domain; [3]): 1.926
Sequence: GLCSFYETSKM [MAGED2_Y449_R446C_YF]

Screen (c-Abl kinase domain; [1]): -1.856
Screen (Fer kinase domain; [3]): 1.626
Sequence: KGEDFYCVTFH [FHL1_Y149_C153Y_YF]

Sequence: QAEELYFGKMG [YES1_Y159_W158L]
Screen (c-Src kinase domain; [4]): 2.237

Sequence: NTGNFYDLFGG [PTPN11_Y63_D61N_YF]
Screen (c-Src kinase domain; [4]): 0.1419
Screen (Fer kinase domain; [3]): 0.7498

Screen (c-Abl kinase domain; [1]): 0.592
Sequence: LDPDSYNKFEN [FOXC1_Y159_M161K]

Sequence: VDGFVYKLHPS [GCK_Y413_S411F]
Screen (c-Src kinase domain; [5]): -2.399

Sequence: TAGFIYEKWEI [TEC_Y360_S359I]
Screen (c-Src kinase domain; [4]): 3.208
Screen (Fer kinase domain; [6]): 3.032

Sequence: DFFDLYGGEKK [PTPN11_Y66_F71K_YF]
Screen (c-Src kinase domain; [4]): -0.3154
Screen (c-Abl kinase domain; [1]): 0.6551

Sequence: CVRTIYTIDGS [DCLK2_Y124_G119C]
Screen (c-Src kinase domain; [5]): 0.3247

Screen (c-Abl kinase domain; [2]): 3.612
Sequence: APRKVYDTQDD [ZFPL1_Y215_R218Q]

Sequence: VQQVIYATRAL [MYH7_Y422_G425R]
Screen (c-Src kinase domain; [4]): 0.27
Screen (c-Abl kinase domain; [1]): -0.009809

Screen (EPHB1 kinase domain): 0.9285
Sequence: CPFNLYAEQFS [HGD_Y40_L44F_YF]

Screen (c-Abl kinase domain; [1]): 0.04202
Sequence: IMITGYLLLFR [INSR_Y87_D86G]

Screen (c-Abl kinase domain; [2]): -0.03774
Sequence: KDPPDYKFQPR [SOX9_Y172_H169P_YF]

Screen (c-Abl kinase domain; [1]): 0.5588
Screen (Fer kinase domain; [3]): -0.4348
Sequence: EEQFFYEKAIL [BCCIP_Y257_E254Q]

Screen (c-Abl kinase domain; [1]): 0.7292
Sequence: NFGTNYRVGSS [CPO_Y278_K273N_YF]

Sequence: GRIHSYRGHLW [VHL_Y112_R107G]
Screen (c-Src kinase domain; [4]): -3.383
Screen (variant relative to reference peptide, measured in the pTyr-Var library screen) (EPHB1 kinase domain): -1.934

Sequence: REHTVYWEPRK [MAGEA4_Y240_G241W]
Screen (c-Src kinase domain; [5]): 1.621
Screen (EPHB1 kinase domain): 3.741

Screen (EPHB1 kinase domain): 0.9985
Sequence: QEGPEYWDLET [HLA-A_Y83_Q86L]

Screen (Fer kinase domain; [3]): 1.727
Sequence: CLNAIYQNNLT [GSR_Y158_R153C]

Screen (c-Abl kinase domain; [1]): 0.4752
Sequence: ECIEFYELDKK [PMM2_Y145_R141C]

Screen (c-Abl kinase domain; [1]): 0.7194
Sequence: VNFGAYINDFN [GLB1_Y488_K493N_YF]

Sequence: RTVDVYFGPQM [KIRREL3_Y332_R336Q]
Screen (c-Src kinase domain; [5]): 1.347

Screen (c-Abl kinase domain; [1]): 0.3272
Sequence: VFAANYFKLLG [ROR2_Y645_D644N_YF]

Screen (Fer kinase domain; [3]): -1.474
Sequence: PFSNSYENSLI [EPOR_Y489_P488S_YF]

Sequence: PLDGEYLTLQI [TP53_Y327_F328L]
Screen (c-Src kinase domain; [4]): -1.75

Sequence: MSRDVYSIDFF [NTRK2_Y702_T704I_YF]
Screen (c-Src kinase domain; [4]): 1.303

Sequence: RDSQIYAVDFE [MRPS34_Y34_L33I_YF]
Screen (c-Src kinase domain; [5]): 2.537

Sequence: FSMGCYEISLE [HMGCL_Y198_G203E_YF]
Screen (c-Src kinase domain; [5]): -0.09414
Screen (Fer kinase domain; [3]): -0.6623

Screen (c-Abl kinase domain; [2]): 1.107
Sequence: CTTIRYNFMCN [TP53_Y234_H233R_YF]

Screen (Fer kinase domain; [3]): -0.04574
Sequence: IRRIAYEFVEM [ADA_Y84_K80R]

Screen (c-Abl kinase domain; [1]): -0.6179
Sequence: PQIVKYRPDCI [LDHB_Y128_S129R]

Sequence: RPIEVYLCPEE [E2F3_Y349_G344R]
Screen (c-Src kinase domain; [5]): 1.834

Screen (c-Abl kinase domain; [1]): -0.477
Sequence: SKNSKYNAGST [PSEN1_Y315_E318G]

Screen (c-Abl kinase domain; [1]): 0.3032
Sequence: CGTPDYIAREI [PRKCG_Y521_P524R]

Screen (c-Abl kinase domain; [2]): -1.867
Sequence: WANPEYTGGFK [TTN_Y22309_K22306N]

Screen (c-Abl kinase domain; [1]): 1.984
Sequence: QRRLIYRCQVG [NR2E3_Y81_R76Q]

Screen (c-Abl kinase domain; [2]): -0.62
Sequence: SGLDSYVRSLP [TRAPPC1_Y133_R129G]

Screen (c-Abl kinase domain; [2]): -2.483
Screen (Fer kinase domain; [6]): 0.6845
Sequence: SVCPDYDLCSI [SQSTM1_Y148_V153I]

Sequence: PMDGEYFTLQI [TP53_Y327_L323M]
Screen (c-Src kinase domain; [4]): 0.4461
Screen (Fer kinase domain; [6]): 0.4582

Screen (c-Abl kinase domain; [1]): -1.083
Sequence: DTLASYLDKVR [KRT12_Y139_R135T]

Screen (c-Abl kinase domain; [1]): 1.067
Sequence: QDEPTYARSSK [PEAK1_Y616_H611Q]

Screen (c-Abl kinase domain; [1]): 0.3767
Sequence: FSGKAYADEEQ [CRIM1_Y826_R831Q]

Sequence: GKSFIYAAFHA [KCNT1_Y563_T562I]
Screen (c-Src kinase domain; [5]): -0.6339

Sequence: ARSHIYTLASC [MEFV_Y741_F743L]
Screen (c-Src kinase domain; [5]): 0.6764

Sequence: TSPALYRLDLD [TRIL_Y352_A347T]
Screen (c-Src kinase domain; [4]): -0.36
Screen (c-Abl kinase domain; [2]): -0.2355

Sequence: EVASVYESFQP [MAVS_Y92_Q93E_YF]
Screen (c-Src kinase domain; [5]): 0.01447
Screen (Fer kinase domain; [3]): 1.389

Screen (EPHB1 kinase domain): 0.9471
Sequence: PEADKYHLTFA [FGG_Y300_R301H_YF]

Screen (Fer kinase domain; [3]): 3.48
Sequence: GLIPAYHWVIM [NMNAT1_Y64_R66W]

Sequence: ATRDVYNPFET [SCAMP3_Y41_L38R]
Screen (c-Src kinase domain; [4]): -1.143
